# Measurements: patent US20260151400A1, “USE OF ANTAGONISTS OF NEUROKININ-1 RECEPTOR AND NUCLEOSIDE ANALOGS FOR THE TREATMENT OF HERPESVIRIDAE” (THE REGENTS OF THE UNIVERSITY OF COLORADO, a body corporate, priority 2022, published 2026)
# Tests used:
# [1] = biological target: NK-1 receptors in the brain (Homo sapiens, UniProt P25103); conditions: occupies NK-1 receptors in the brain; cited from earlier work
# [2] = test system: uninfected HA-sp (primary human spinal astrocytes); conditions: aprepitant tested at 1-100 μM, data not shown
# Method: After 24 hours, medium was changed to basal astrocyte medium containing 0.1% FBS and 1% 100× penicillin-streptomycin that was replenished every 72 hours for 7 days to establish quiescence. On day 7, spinal astrocytes were co-cultivated with VZV-infected spinal astrocytes (40 pfu/mL) or mock-infected spinal astrocytes.
# [3] = IV acyclovir; precipitation of aciclovir crystals in the kidney; cited from earlier work
# Sequence of NK-1 receptors in the brain (P25103 whole entry): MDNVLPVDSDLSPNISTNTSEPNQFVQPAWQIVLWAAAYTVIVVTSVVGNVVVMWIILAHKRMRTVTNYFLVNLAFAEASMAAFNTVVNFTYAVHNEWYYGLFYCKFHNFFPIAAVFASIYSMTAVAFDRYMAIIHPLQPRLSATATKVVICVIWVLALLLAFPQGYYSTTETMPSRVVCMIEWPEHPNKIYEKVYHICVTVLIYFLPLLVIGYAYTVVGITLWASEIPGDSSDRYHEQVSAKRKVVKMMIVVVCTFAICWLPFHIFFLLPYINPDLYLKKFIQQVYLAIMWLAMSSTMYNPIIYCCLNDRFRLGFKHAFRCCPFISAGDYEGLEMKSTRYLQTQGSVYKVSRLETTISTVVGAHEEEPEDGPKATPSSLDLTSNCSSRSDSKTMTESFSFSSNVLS
smiles,measurement,setting,value
C[C@@H](O[C@H]1OCCN(Cc2n[nH]c(=O)[nH]2)[C@H]1c1ccc(F)cc1)c1cc(C(F)(F)F)cc(C(F)(F)F)c1 [aprepitant],blood-brain barrier crossing,[1],crosses the blood-brain barrier
same,optimal concentration to avoid cell death,[2],10 µM
Nc1nc2c(ncn2COCCO)c(=O)[nH]1 [acyclovir],patients with reversible nephrotoxicity,[3],5-10%
